Assay results as given in patent publication US9169252B2 (BRISTOL-MYERS SQUIBB COMPANY, priority 2014, dated 2015).

Legend:
[1] = tested on: TLR2 induced IL-6 in peripheral blood mononuclear cells (PBMCs); experiment: PBMC TLR2 Induced IL-6 Assay; format: cell-based, human; details: Homo sapiens, PBMC, human PBMCs, lipoteichoic acid stimulated, IL-6 by ELISA; read-out: Cell IC50
Summary of the method: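 Lipoteichoic acid at 10 µg/ml served as TLR2 stimulus for 5 hours, following a 30-minute compound pretreatment at 37° C. Cells were Ficoll-isolated human PBMCs, 250000 cells/well, cultured in RPMI plus 10% heat-inactivated FCS.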

IRAK4 = IRAK4 (Homo sapiens (Human), UniProt Q9NWZ3); experiment: IRAK4 Inhibition Assay; format: biochemical; details: ATP 500 μM; IRAK4 0.6 nM; read-out: IRAK4 IC50
Summary of the method: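 Mobility-shift readout: fluorescent substrate and phosphoproduct resolved electrophoretically on Caliper LabChip 3000 after EDTA quench (35 mM). Enzyme reaction of IRAK4, substrates and test compound ran 60 min at room temperature.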

Chain of IRAK4 (Q9NWZ3 whole entry, species assumed): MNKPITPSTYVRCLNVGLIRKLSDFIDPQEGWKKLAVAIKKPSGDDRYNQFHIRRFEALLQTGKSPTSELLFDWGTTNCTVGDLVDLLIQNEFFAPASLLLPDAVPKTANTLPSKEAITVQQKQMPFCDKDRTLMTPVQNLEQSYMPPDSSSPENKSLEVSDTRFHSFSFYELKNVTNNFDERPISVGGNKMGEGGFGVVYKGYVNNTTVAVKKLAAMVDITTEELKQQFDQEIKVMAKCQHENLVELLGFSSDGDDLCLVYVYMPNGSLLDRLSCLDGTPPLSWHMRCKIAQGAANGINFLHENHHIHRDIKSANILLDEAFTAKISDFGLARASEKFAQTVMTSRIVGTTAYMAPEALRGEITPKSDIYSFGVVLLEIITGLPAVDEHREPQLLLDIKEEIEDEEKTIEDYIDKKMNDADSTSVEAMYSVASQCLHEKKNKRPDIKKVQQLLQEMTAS

IC50 (IRAK4) | Structure (SMILES) | IC50 [1]
1.5 nM | CC(C)(O)[C@H](F)CNC(=O)c1cnc(-n2ncc3cc(C#N)c(N)nc32)cc1NC12CC(C1)C2 [Example 637] | 165 nM
6.4 nM | CC(C)NC(=O)[C@H]1CC[C@H](Nc2cc(-n3ncc4cc(C#N)cnc43)ncc2C(=O)NC[C@@H](F)C(C)(C)O)CC1 [Example 641] | 718 nM
4.3 nM | CC(C)(O)[C@H](F)CNC(=O)c1cnc(-n2ncc3cc(C#N)cnc32)cc1NC1CC(F)(F)C1 [Example 644] | 89 nM
